Experimental findings from BindingDB's records for doi:10.1016/j.bioorg.2011.05.001 (Medical University of Lodz, 2011) are described below.

One experiment has as its target Acetylcholinesterase (Electrophorus electricus, UniProt O42275). Briefly: Enzyme Assay. The text has this: (§1) Enzyme activity using acetylcholinesterase (AChE) and butyrylcholinesterase (BChE).
The target of experiment [1] is Carboxylic ester hydrolase (Equus caballus, UniProt Q9N1N9). Briefly: Enzyme Assay.
Source text: as §1

pIC50: −log10 of the molar value. Structures can show the parent of a compound that is named as a salt.

Chain of Acetylcholinesterase (O42275 whole entry): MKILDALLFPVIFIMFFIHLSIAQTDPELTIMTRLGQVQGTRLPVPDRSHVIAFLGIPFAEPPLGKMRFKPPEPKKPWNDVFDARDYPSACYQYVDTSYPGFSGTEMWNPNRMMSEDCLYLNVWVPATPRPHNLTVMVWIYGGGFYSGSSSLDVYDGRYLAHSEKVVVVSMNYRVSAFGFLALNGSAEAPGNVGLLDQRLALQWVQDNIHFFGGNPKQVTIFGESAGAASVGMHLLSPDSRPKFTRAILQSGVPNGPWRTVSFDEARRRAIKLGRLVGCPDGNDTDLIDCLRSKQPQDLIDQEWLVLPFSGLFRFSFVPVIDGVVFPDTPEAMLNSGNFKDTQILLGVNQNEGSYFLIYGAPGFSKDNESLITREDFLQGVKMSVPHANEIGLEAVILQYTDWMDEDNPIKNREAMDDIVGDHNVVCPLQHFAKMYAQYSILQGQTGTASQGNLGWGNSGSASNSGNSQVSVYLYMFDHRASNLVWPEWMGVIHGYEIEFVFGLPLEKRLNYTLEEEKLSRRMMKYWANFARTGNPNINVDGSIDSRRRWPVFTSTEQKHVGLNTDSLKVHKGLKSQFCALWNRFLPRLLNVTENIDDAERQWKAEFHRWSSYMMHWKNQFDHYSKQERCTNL
Chain of Carboxylic ester hydrolase (Q9N1N9 whole entry): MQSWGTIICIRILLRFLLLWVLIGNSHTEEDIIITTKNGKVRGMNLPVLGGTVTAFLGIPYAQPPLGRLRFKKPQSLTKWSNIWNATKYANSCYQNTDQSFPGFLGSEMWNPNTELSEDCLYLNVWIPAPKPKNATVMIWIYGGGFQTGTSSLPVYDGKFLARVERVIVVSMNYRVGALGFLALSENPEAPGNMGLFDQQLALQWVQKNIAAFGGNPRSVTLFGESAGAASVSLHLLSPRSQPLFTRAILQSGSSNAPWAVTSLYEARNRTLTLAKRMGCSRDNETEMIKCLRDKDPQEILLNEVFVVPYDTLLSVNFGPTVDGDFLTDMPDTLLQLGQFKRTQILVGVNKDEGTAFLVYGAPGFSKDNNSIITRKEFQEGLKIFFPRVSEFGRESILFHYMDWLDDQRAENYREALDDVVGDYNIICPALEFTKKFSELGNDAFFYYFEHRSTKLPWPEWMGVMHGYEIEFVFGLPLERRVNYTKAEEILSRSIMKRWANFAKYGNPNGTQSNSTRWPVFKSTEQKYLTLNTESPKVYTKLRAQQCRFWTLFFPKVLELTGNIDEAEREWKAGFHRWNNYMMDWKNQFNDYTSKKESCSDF

For the compound `NNc1ccc(C(=O)NCCCCCNc2c3c(nc4ccccc24)CCCC3)cn1` [Nicotinamide hydrochloride analog, 6b], the pIC50 at Acetylcholinesterase is 6.51.
`NNc1ccc(C(=O)NCCCCCCCNc2c3c(nc4ccccc24)CCCC3)cn1` [Nicotinamide hydrochloride analog, 6c]: the pIC50 was 8.95 in experiment [1] and 6.14 on Acetylcholinesterase.
The corresponding values for `NNc1ccc(C(=O)NCCCCNc2c3c(nc4ccccc24)CCCC3)cn1` [Nicotinamide hydrochloride analog, 6a] are 8.84 and 6.36.
